Measurements reported in patent US10266537B2, “3-acetylenyl-pyrazole-pyrimidine derivative, and preparation method therefor and uses thereof” (Si Chuan University, priority 2015, dated 2019).

What was measured:
THP-1 = test: Cell proliferation inhibition assay (MTT); format: cell-based; conditions: Homo sapiens, 72 hours, read-out: Proliferation inhibitory activity IC50
Method: (§1) The cells were seeded in 96-well plates with 200 μL of cell suspension per well and incubated overnight in a cell culture medium with a cell concentration of 1 2×10^4 cells/mL. The next day, the supernatant was discarded (the suspension cell was centrifuged before it) and the cells were treated with gradient concentrations of the test compound, respectively. […] After 72 hours, add 20 μL of MTT reagent at a concentration of 5 mg/mL per well. After incubation for 2-4 h, the supernatant was discarded and 150 μL of DMSO was added to each well. […] Relative cell proliferation inhibition rate=([MUT]-[MUT])×100%/[MUT]. The experiment was repeated at least 3 times. Experimental data were expressed as mean, data statistics using t test, P<0.05 for the difference was statistically significant.

H4 = test: Cell proliferation inhibition assay (MTT); format: cell-based; conditions: Homo sapiens, 72 hours, read-out: Proliferation inhibitory activity IC50
Method: as §1

SKBR-3 = test: Cell proliferation inhibition assay (MTT); format: cell-based; conditions: Homo sapiens, SK-BR-3, 72 hours, read-out: Proliferation inhibitory activity IC50
Method: as §1

FGFR2 = FGFR2 (Homo sapiens (Human), UniProt P21802); test: Kinase inhibition assay (KinaseProfiler, 33P-ATP); format: biochemical
EGFR(T790M) = EGFR(T790M) (Homo sapiens (Human), UniProt P00533, T790M); test: Kinase inhibition assay (KinaseProfiler, 33P-ATP); format: biochemical; conditions: EGFR(T790M)(h), read-out: The percentage of the remaining active protein
EphB1 = EphB1 (Homo sapiens (Human), UniProt P54762); test: Kinase inhibition assay (KinaseProfiler, 33P-ATP); format: biochemical; conditions: EphB1(h), read-out: The percentage of the remaining active protein
PDGFRα (V561D) = PDGFRα (V561D) (Homo sapiens (Human), UniProt P16234, V561D); test: Kinase inhibition assay (KinaseProfiler, 33P-ATP); format: biochemical; conditions: PDGFRα(V561D)(h), read-out: The percentage of the remaining active protein
U251 = test: Cell proliferation inhibition assay (MTT); format: cell-based; conditions: Homo sapiens, U-251, 72 hours, read-out: Proliferation inhibitory activity IC50
Method: as §1

PC-9 = test: Cell proliferation inhibition assay (MTT); format: cell-based; conditions: Homo sapiens, 72 hours, read-out: Proliferation inhibitory activity IC50
Method: as §1

ALK6(h) = ALK6(h) (Homo sapiens (Human), UniProt O00238); test: Kinase inhibition assay (KinaseProfiler, 33P-ATP); format: biochemical; conditions: read-out: The percentage of the remaining active protein
AMPKα1(h) = AMPKα1(h) (Homo sapiens (Human), UniProt Q13131); test: Kinase inhibition assay (KinaseProfiler, 33P-ATP); format: biochemical; conditions: read-out: The percentage of the remaining active protein
AMPKα2(h) = AMPKα2(h) (Homo sapiens (Human), UniProt P54646); test: Kinase inhibition assay (KinaseProfiler, 33P-ATP); format: biochemical; conditions: read-out: The percentage of the remaining active protein
CaMKIIγ(h) = CaMKIIγ(h) (Homo sapiens (Human), UniProt Q13555); test: Kinase inhibition assay (KinaseProfiler, 33P-ATP); format: biochemical; conditions: read-out: The percentage of the remaining active protein
CDK2/cyclinA(h) = CDK2/cyclinA(h) (Homo sapiens (Human), UniProt P24941); test: Kinase inhibition assay (KinaseProfiler, 33P-ATP); format: biochemical; conditions: read-out: The percentage of the remaining active protein
CK1γ1(h) = CK1γ1(h) (Homo sapiens (Human), UniProt Q9HCP0); test: Kinase inhibition assay (KinaseProfiler, 33P-ATP); format: biochemical; conditions: read-out: The percentage of the remaining active protein
CK1γ2(h) = CK1γ2(h) (Homo sapiens (Human), UniProt P78368); test: Kinase inhibition assay (KinaseProfiler, 33P-ATP); format: biochemical; conditions: read-out: The percentage of the remaining active protein
DYRK1A(h) = DYRK1A(h) (Homo sapiens (Human), UniProt Q13627); test: Kinase inhibition assay (KinaseProfiler, 33P-ATP); format: biochemical; conditions: read-out: The percentage of the remaining active protein
EGFR(L858R)(h) = EGFR(L858R)(h) (Homo sapiens (Human), UniProt P00533, L858R); test: Kinase inhibition assay (KinaseProfiler, 33P-ATP); format: biochemical; conditions: read-out: The percentage of the remaining active protein
FGFR4(h) = FGFR4(h) (Homo sapiens (Human), UniProt P22455); test: Kinase inhibition assay (KinaseProfiler, 33P-ATP); format: biochemical; conditions: read-out: The percentage of the remaining active protein
HIPK3(h) = HIPK3(h) (Homo sapiens (Human), UniProt Q9H422); test: Kinase inhibition assay (KinaseProfiler, 33P-ATP); format: biochemical; conditions: read-out: The percentage of the remaining active protein
IRE1(h) = IRE1(h) (Homo sapiens (Human), UniProt O75460); test: Kinase inhibition assay (KinaseProfiler, 33P-ATP); format: biochemical; conditions: read-out: The percentage of the remaining active protein
JNK2α2(h) = JNK2α2(h) (Homo sapiens (Human), UniProt P45984); test: Kinase inhibition assay (KinaseProfiler, 33P-ATP); format: biochemical; conditions: read-out: The percentage of the remaining active protein
LKB1(h) = LKB1(h) (Homo sapiens (Human), UniProt Q15831); test: Kinase inhibition assay (KinaseProfiler, 33P-ATP); format: biochemical; conditions: read-out: The percentage of the remaining active protein
LOK(h) = LOK(h) (Homo sapiens (Human), UniProt O94804); test: Kinase inhibition assay (KinaseProfiler, 33P-ATP); format: biochemical; conditions: read-out: The percentage of the remaining active protein
MRCKα(h) = MRCKα(h) (Homo sapiens (Human), UniProt Q5VT25); test: Kinase inhibition assay (KinaseProfiler, 33P-ATP); format: biochemical; conditions: read-out: The percentage of the remaining active protein
NEK7(h) = NEK7(h) (Homo sapiens (Human), UniProt Q8TDX7); test: Kinase inhibition assay (KinaseProfiler, 33P-ATP); format: biochemical; conditions: read-out: The percentage of the remaining active protein
NLK(h) = NLK(h) (Homo sapiens (Human), UniProt Q9UBE8); test: Kinase inhibition assay (KinaseProfiler, 33P-ATP); format: biochemical; conditions: read-out: The percentage of the remaining active protein
PEK(h) = PEK(h) (Homo sapiens (Human), UniProt Q9NZJ5); test: Kinase inhibition assay (KinaseProfiler, 33P-ATP); format: biochemical; conditions: read-out: The percentage of the remaining active protein
PDGFRβ(h) = PDGFRβ(h) (Homo sapiens (Human), UniProt P09619); test: Kinase inhibition assay (KinaseProfiler, 33P-ATP); format: biochemical; conditions: read-out: The percentage of the remaining active protein
PKCδ(h) = PKCδ(h) (Homo sapiens (Human), UniProt Q05655); test: Kinase inhibition assay (KinaseProfiler, 33P-ATP); format: biochemical; conditions: read-out: The percentage of the remaining active protein
PKCθ(h) = PKCθ(h) (Homo sapiens (Human), UniProt Q04759); test: Kinase inhibition assay (KinaseProfiler, 33P-ATP); format: biochemical; conditions: read-out: The percentage of the remaining active protein
ROCK-I(h) = ROCK-I(h) (Homo sapiens (Human), UniProt Q13464); test: Kinase inhibition assay (KinaseProfiler, 33P-ATP); format: biochemical; conditions: read-out: The percentage of the remaining active protein
ROCK-II(r) = ROCK-II(r) (Rattus norvegicus (Rat), UniProt Q62868); test: Kinase inhibition assay (KinaseProfiler, 33P-ATP); format: biochemical; conditions: read-out: The percentage of the remaining active protein
TAO1(h) = TAO1(h) (Homo sapiens (Human), UniProt Q7L7X3); test: Kinase inhibition assay (KinaseProfiler, 33P-ATP); format: biochemical; conditions: read-out: The percentage of the remaining active protein
[1] = target: PI3 Kinase (p110b/p85a)(h) (Homo sapiens (Human), UniProt P42338); test: Kinase inhibition assay (KinaseProfiler, 33P-ATP); format: biochemical; conditions: read-out: The percentage of the remaining active protein
PIP5K1a(h) = PIP5K1a(h) (Homo sapiens (Human), UniProt Q99755); test: Kinase inhibition assay (KinaseProfiler, 33P-ATP); format: biochemical; conditions: read-out: The percentage of the remaining active protein

Sequence of FGFR2 (P21802 22-821): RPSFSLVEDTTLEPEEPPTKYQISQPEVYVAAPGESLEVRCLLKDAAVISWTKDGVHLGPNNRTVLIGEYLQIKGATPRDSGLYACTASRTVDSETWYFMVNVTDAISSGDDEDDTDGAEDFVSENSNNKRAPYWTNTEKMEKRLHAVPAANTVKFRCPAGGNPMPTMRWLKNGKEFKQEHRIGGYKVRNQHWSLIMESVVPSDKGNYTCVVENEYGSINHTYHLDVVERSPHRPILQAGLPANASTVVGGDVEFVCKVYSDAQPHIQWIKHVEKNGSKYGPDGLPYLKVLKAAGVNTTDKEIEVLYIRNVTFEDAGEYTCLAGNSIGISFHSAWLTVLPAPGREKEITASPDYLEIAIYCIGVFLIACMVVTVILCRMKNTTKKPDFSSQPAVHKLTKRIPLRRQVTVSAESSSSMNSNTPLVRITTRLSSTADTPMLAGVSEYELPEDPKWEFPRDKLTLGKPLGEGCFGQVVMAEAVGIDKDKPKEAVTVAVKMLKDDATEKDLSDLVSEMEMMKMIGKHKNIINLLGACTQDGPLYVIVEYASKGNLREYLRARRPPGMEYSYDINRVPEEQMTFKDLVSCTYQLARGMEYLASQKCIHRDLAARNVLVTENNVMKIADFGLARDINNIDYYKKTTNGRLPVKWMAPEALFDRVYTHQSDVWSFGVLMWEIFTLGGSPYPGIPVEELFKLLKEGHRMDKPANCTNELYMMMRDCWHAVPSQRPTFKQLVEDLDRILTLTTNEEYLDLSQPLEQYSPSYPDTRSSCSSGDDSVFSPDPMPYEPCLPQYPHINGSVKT
Sequence of ROCK-I(h) (Q13464 whole entry): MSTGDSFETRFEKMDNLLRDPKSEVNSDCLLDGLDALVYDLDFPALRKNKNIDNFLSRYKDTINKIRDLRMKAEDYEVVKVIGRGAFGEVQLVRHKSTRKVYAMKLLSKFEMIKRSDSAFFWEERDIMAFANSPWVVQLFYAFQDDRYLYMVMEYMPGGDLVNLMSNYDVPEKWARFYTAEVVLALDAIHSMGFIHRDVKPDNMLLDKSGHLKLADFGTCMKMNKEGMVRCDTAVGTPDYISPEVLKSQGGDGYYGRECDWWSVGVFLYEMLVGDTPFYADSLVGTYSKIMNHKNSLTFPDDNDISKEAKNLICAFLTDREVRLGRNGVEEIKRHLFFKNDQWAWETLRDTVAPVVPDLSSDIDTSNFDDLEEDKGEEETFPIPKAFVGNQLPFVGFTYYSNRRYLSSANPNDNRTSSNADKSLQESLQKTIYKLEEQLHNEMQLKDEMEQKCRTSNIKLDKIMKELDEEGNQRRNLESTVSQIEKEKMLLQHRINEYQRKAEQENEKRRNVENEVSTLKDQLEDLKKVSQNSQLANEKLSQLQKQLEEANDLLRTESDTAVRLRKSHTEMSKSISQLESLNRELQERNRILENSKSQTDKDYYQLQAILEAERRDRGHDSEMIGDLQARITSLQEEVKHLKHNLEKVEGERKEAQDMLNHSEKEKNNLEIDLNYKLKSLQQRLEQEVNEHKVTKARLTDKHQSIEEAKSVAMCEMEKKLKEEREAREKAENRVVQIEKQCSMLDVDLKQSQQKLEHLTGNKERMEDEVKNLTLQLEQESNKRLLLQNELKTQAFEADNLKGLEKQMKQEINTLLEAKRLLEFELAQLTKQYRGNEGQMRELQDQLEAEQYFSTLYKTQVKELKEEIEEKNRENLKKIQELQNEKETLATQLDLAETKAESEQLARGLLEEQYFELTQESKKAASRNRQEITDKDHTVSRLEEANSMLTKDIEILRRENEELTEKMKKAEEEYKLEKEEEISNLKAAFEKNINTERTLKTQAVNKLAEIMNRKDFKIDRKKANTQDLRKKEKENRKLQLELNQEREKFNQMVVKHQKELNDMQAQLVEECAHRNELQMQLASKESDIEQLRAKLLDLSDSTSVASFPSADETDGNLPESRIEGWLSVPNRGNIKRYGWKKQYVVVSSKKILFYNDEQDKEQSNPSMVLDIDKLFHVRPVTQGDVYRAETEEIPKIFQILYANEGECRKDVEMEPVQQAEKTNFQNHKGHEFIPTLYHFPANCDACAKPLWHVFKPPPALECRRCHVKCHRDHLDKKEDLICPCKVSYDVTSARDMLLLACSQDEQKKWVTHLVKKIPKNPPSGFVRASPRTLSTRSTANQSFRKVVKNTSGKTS
Sequence of EGFR(T790M) (P00533 25-1210 T790M): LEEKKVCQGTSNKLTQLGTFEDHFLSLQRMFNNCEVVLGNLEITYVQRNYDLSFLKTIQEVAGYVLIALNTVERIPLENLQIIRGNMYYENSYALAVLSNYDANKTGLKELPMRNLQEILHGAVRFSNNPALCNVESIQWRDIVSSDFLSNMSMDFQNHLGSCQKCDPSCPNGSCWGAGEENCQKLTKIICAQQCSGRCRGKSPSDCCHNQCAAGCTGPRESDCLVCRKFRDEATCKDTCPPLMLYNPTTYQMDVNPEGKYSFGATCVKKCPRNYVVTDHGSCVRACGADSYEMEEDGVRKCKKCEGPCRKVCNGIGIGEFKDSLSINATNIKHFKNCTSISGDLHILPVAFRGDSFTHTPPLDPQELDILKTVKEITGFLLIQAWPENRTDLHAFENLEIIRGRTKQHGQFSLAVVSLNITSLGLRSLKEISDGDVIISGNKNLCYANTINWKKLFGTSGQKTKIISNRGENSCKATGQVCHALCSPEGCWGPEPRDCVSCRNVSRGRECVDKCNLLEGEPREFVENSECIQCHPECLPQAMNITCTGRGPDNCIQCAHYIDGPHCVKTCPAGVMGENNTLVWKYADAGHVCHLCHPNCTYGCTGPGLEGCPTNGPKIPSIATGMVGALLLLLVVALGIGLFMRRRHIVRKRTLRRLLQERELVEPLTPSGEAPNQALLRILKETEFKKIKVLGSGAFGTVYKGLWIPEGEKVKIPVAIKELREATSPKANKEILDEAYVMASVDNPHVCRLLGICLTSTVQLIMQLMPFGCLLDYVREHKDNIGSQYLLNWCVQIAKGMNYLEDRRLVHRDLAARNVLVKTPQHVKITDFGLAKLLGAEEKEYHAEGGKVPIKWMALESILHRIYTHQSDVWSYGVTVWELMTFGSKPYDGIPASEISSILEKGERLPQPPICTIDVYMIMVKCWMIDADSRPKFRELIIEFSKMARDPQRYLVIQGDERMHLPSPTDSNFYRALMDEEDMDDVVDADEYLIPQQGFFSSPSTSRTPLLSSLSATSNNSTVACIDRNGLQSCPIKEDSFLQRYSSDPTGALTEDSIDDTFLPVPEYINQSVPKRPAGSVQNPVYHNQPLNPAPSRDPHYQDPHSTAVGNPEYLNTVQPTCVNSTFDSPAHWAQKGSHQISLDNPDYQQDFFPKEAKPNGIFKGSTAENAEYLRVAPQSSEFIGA
Sequence of PDGFRβ(h) (P09619 33-1106): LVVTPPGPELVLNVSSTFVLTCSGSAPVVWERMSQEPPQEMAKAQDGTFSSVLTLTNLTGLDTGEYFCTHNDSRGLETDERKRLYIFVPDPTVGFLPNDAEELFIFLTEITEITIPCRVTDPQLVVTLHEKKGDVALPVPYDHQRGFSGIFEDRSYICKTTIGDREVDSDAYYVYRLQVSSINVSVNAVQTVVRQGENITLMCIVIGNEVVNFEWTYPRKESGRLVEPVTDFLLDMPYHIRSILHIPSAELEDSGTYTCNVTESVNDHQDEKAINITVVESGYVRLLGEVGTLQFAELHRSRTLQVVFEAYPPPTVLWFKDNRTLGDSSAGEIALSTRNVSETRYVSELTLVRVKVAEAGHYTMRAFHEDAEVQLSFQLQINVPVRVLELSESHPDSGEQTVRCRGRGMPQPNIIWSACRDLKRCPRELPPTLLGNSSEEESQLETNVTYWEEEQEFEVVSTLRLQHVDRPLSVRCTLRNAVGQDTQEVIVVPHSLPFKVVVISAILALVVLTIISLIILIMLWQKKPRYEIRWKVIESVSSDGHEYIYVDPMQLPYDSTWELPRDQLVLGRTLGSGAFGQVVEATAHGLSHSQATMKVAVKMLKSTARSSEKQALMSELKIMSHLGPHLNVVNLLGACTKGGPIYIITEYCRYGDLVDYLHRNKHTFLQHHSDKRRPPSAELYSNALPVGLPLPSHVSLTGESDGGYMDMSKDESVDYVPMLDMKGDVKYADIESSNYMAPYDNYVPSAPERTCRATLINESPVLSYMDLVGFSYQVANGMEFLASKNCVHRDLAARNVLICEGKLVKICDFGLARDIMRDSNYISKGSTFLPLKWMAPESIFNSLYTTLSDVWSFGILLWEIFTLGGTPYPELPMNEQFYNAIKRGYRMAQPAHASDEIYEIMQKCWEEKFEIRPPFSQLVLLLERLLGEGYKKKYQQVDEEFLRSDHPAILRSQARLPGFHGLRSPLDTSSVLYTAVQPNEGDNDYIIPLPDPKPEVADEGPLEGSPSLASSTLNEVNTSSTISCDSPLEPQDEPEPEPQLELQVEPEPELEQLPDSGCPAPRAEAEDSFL
Sequence of CK1γ1(h) (Q9HCP0 whole entry): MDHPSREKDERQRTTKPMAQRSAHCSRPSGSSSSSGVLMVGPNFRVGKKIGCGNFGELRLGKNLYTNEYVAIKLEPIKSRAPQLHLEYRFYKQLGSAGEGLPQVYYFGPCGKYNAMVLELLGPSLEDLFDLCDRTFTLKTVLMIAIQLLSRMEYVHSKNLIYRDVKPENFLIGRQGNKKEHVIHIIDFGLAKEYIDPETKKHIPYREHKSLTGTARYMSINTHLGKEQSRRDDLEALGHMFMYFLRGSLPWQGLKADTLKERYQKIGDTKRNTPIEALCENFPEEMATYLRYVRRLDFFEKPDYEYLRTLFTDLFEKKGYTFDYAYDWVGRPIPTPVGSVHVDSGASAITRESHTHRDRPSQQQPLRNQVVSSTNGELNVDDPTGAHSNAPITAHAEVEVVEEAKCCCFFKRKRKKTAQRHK

Cc1ccc(NC(=O)c2cccc(C(F)(F)F)c2)cc1C#Cc1nn(C2CCN(C)CC2)c2ncnc(N)c12 [Compound 31]
IC50 (THP-1): 7.38 µM | IC50 (H4): 1.81 µM | IC50 (SKBR-3): 1.27 µM

Cc1ccc(NC(=O)c2ccc(C)c(C(F)(F)F)c2)cc1C#Cc1nn([C@H]2CC[C@H](O)CC2)c2ncnc(N)c12 [Compound 93]
remaining activity at 10 µM (FGFR2; FGFR2(h), 10 μM, read-out: The percentage of the remaining active protein): 0% | IC50 (FGFR2; FGFR2, ATP at Km): 0.04 µM | remaining activity at 10 µM (EGFR(T790M)): 4% | remaining activity at 10 µM (EphB1): -1% | remaining activity at 10 µM (PDGFRα (V561D)): 0% | IC50 (U251): 0.1 µM | IC50 (PC-9): 0.1 to 0.3 µM | remaining activity at 10 µM (ALK6(h)): 18% | remaining activity at 10 µM (AMPKα1(h)): 109% | remaining activity at 10 µM (AMPKα2(h)): 90% | remaining activity at 10 µM (CaMKIIγ(h)): 90% | remaining activity at 10 µM (CDK2/cyclinA(h)): 100% | remaining activity at 10 µM (CK1γ1(h)): 83% | remaining activity at 10 µM (CK1γ2(h)): 114% | remaining activity at 10 µM (DYRK1A(h)): 95% | remaining activity at 10 µM (EGFR(L858R)(h)): 21% | remaining activity at 10 µM (FGFR4(h)): 33% | remaining activity at 10 µM (HIPK3(h)): 81% | remaining activity at 10 µM (IRE1(h)): 94% | remaining activity at 10 µM (JNK2α2(h)): 13% | remaining activity at 10 µM (LKB1(h)): 94% | remaining activity at 10 µM (LOK(h)): 16% | remaining activity at 10 µM (MRCKα(h)): 101% | remaining activity at 10 µM (NEK7(h)): 98% | remaining activity at 10 µM (NLK(h)): 82% | remaining activity at 10 µM (PEK(h)): 39% | remaining activity at 10 µM (PDGFRβ(h)): 87% | remaining activity at 10 µM (PKCδ(h)): 96% | remaining activity at 10 µM (PKCθ(h)): 103% | remaining activity at 10 µM (ROCK-I(h)): 126% | remaining activity at 10 µM (ROCK-II(r)): 85% | remaining activity at 10 µM (TAO1(h)): 18% | remaining activity at 10 µM [1]: 78% | remaining activity at 10 µM (PIP5K1a(h)): 102%
